Numbers after ± are expanded uncertainties.
Settings: Liquid; for mass density: 298.15 K, 101.33 kPa, Vibrating tube method; for vapor or sublimation pressure: 308.15 K, Ebulliometric method (Recirculating still)

Compound | mass density [kg/m3] | vapor or sublimation pressure [kPa]
BrCBr [dibromomethane] | 2478.61 ± 1.8 | 9.932 ± 0.1
ClC(Cl)(Cl)Br [bromotrichloromethane] | 2002.14 ± 1.2 | 8.428 ± 0.1
CCCCCCC [heptane] | 679.6 ± 0.18 | 9.916 ± 0.1
ClCBr [bromochloromethane] | 1921.71 ± 1.1 | 31.05 ± 0.18
